In ChEMBL document CHEMBL1127515, “The [(methyloxy)imino]methyl moiety as a bioisoster of aryl. A novel class of completely aliphatic beta-adrenergic receptor antagonists” (J Med Chem, 1994):

Experiments:
[1] = biological target: Beta-2 adrenergic receptor (Cavia porcellus, UniProt Q8K4Z4); assay: Inhibitory concentration against beta-2-adrenergic receptor in isolated guinea pig tracheal strips
[2] = biological target: Beta-2 adrenergic receptor (Bos taurus, UniProt Q28044); assay: Binding affinity against beta-2-adrenergic receptor in bovine lung
Sequence of Beta-2 adrenergic receptor (Bos taurus, UniProt Q28044) (Q28044 whole entry): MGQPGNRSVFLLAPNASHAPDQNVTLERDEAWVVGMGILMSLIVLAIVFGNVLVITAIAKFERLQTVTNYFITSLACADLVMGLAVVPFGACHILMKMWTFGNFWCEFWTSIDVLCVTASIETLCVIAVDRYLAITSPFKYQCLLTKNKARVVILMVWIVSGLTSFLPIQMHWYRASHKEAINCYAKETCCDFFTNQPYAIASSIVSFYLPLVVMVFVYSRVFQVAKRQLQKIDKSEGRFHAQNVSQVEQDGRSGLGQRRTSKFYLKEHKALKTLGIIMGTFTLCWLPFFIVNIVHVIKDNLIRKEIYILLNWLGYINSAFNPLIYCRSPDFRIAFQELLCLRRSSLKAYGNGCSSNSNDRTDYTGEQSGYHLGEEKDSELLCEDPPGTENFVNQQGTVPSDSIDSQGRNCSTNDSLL

[3] = biological target: Beta-1 adrenergic receptor (Cavia porcellus, UniProt B0FL73); assay: Inhibitory concentration against beta-1-adrenergic receptor in isolated guinea pig atria
Sequence of Beta-1 adrenergic receptor (Cavia porcellus, UniProt B0FL73) (B0FL73 whole entry): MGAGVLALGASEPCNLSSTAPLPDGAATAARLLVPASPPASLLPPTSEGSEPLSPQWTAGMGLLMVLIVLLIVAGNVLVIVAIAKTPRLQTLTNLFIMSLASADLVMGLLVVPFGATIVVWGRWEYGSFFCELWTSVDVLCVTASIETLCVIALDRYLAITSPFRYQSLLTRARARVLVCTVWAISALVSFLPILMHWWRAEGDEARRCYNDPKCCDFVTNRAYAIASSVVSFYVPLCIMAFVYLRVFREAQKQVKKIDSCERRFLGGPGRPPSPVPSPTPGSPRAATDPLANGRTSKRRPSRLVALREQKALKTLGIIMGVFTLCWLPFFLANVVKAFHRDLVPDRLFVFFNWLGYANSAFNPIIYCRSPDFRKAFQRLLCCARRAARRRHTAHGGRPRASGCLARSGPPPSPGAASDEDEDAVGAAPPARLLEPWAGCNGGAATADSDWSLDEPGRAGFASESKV

[4] = biological target: Beta-1 adrenergic receptor (Rattus norvegicus, UniProt P18090); assay: Binding affinity against beta-1-adrenergic receptor in rat brain; format: tissue-based
Sequence of Beta-1 adrenergic receptor (Rattus norvegicus, UniProt P18090) (P18090 whole entry): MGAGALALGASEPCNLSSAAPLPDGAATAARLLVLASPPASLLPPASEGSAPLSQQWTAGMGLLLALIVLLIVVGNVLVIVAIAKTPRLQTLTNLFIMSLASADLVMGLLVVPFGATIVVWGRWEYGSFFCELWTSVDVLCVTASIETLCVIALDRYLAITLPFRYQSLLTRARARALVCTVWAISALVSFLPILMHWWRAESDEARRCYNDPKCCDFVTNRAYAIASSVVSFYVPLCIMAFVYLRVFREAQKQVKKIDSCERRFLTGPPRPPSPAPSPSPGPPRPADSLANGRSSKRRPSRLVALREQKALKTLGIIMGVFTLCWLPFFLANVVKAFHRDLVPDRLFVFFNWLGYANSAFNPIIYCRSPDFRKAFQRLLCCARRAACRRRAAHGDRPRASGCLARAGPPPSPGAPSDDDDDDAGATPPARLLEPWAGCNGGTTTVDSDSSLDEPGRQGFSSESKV

Sequence of Beta-2 adrenergic receptor (Cavia porcellus, UniProt Q8K4Z4) (Q8K4Z4 whole entry): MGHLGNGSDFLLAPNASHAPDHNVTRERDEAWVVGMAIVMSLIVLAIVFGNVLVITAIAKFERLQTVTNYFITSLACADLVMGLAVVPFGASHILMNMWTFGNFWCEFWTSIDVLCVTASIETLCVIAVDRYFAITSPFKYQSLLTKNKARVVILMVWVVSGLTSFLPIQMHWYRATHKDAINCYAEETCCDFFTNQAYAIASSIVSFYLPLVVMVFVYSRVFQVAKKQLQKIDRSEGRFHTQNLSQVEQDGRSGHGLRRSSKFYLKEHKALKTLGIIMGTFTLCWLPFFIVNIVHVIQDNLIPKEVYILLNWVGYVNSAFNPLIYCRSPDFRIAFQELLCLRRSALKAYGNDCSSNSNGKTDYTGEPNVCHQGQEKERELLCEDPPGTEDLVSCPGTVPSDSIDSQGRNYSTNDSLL

IC50 [1] [nM]	Ki [2] [nM]	IC50 [3] [nM]	Ki [4] [nM]	Compound
12900	7200	30200	1480	C/C=N/OCC(O)CNC(C)C (centres undefined)
4070	1980	13500	760	C/C=N/OCC(O)CNC(C)(C)C (centres undefined)
12000	4580	15500	2200	CC/C=N/OCC(O)CNC(C)C (centres undefined)
4370	5600	15500	1240	CCCO/N=C/C(O)CNC(C)C (centres undefined)
977	1400	13800	1080	CCO/N=C/C(O)CNC(C)(C)C (centres undefined)
3310	3500	12300	1040	CCO/N=C/C(O)CNC(C)C (centres undefined)

Compound	IC50 [1] [nM]	Ki [2] [nM]	IC50 [3] [nM]	Ki [4] [nM]
CC/C=N/OCC(O)CNC(C)(C)C (centres undefined)	1550	1260	26300	500
CC(C)NCC(O)c1ccc(Cl)c(Cl)c1 (centres undefined) [DICHLOROISOPROTERENOL]	977	140	115	51
CCCO/N=C/C(O)CNC(C)(C)C (centres undefined)	269	–	8320	–
